Here are results for three compounds from ChEMBL document CHEMBL4619705, “Conjugation of peptides to short-acyl-chain ceramides for delivery across mucosal cell barriers” (Bioorg Med Chem Lett, 2020).

This series in a line: Drug transport in MDCK2 cells assessed as transcytosis across epithelial monolayers at 37 degree C measured after 3 hrs by transwell assay. The format is ADME, cell-based, Canis lupus familiaris. The conditions noted are these: dog, mdck-ii.

On to `N=C(N)NCCC[C@@H](NC(=O)CNC(=O)[C@@H](Cc1ccc(O)cc1)NC(=O)CNC(=O)[C@@H](CO)NC(=O)CNC(=O)[C@@H](CCCCNC(=O)CCCC[C@@H]1SC[C@@H]2NC(=O)N[C@@H]21)NC(=O)[C@H](N)Cc1cn(CCCCCCNC(=O)c2ccc(-c3c4ccc(=N)c(S(=O)(=O)O)c-4oc4c(S(=O)(=O)O)c(N)ccc34)c(C(=O)O)c2)nn1)C(=O)NCC(=O)N[C@H](CO)C(=O)NCC(=O)N[C@H](CCCCNC(=O)CON)C(N)=O`, for which the Drug transport came out at 0.2%.

For `CCCCCCCCCCCCC/C=C\[C@@H](O)[C@H](/C=N\OCC(=O)NCCCC[C@@H](NC(=O)CNC(=O)[C@@H](CO)NC(=O)CNC(=O)[C@@H](CCCNC(=N)N)NC(=O)CNC(=O)[C@@H](Cc1ccc(O)cc1)NC(=O)CNC(=O)[C@@H](CO)NC(=O)CNC(=O)[C@@H](CCCCNC(=O)CCCC[C@@H]1SC[C@@H]2NC(=O)N[C@@H]21)NC(=O)[C@H](N)Cc1cn(CCCCCCNC(=O)c2ccc(-c3c4ccc(=N)c(S(=O)(=O)O)c-4oc4c(S(=O)(=O)O)c(N)ccc34)c(C(=O)O)c2)nn1)C(N)=O)NC(=O)CCCCC`, the Drug transport was 11.4%.

Regarding `CCCCCCCCCCCCCC=CC=C(C=NOCC(=O)NCCCC[C@@H](NC(=O)CNC(=O)[C@@H](CO)NC(=O)CNC(=O)[C@@H](CCCNC(=N)N)NC(=O)CNC(=O)[C@@H](Cc1ccc(O)cc1)NC(=O)CNC(=O)[C@@H](CO)NC(=O)CNC(=O)[C@@H](CCCCNC(=O)CCCC[C@@H]1SC[C@@H]2NC(=O)N[C@@H]21)NC(=O)[C@H](N)Cc1cn(CCCCCCNC(=O)c2ccc(-c3c4ccc(=N)c(S(=O)(=O)O)c-4oc4c(S(=O)(=O)O)c(N)ccc34)c(C(=O)O)c2)nn1)C(N)=O)NC(=O)CCCCC`, the Drug transport was determined as 5.8%.
